Measurements published in ChEMBL document CHEMBL3769343, “Spiromastilactones: A new class of influenza virus inhibitors from deep-sea fungus” (Eur J Med Chem, 2016).

Assays:
Influenza A virus = experiment: Antiviral activity against Influenza A virus A/WSN/1933 (H1N1) infected in MDCK cells assessed as protection against virus induced cytopathic effect after 40 hrs by Celltiter-Glo assay; type: functional, organism-based
[1] = Cytotoxicity against MDCK cells after 40 hrs by Celltiter-Glo assay; type: cell-based, Canis lupus familiaris; settings: dog
[2] = system: Influenza A virus (A/WSN/1933(H1N1)); experiment: Binding affinity to Influenza A virus A/WSN/33 (H1N1) HA1 protein assessed as decrease in protein affinity to sialic acid receptor at 20 uM by surface plasmon resonance assay
[3] = system: Influenza A virus (A/WSN/1933(H1N1)); experiment: Binding affinity to Influenza A virus A/WSN/33 (H1N1) HA1 protein assessed as decrease in protein affinity to sialic acid receptor at 1.25 uM by surface plasmon resonance assay
[4] = system: Influenza A virus (A/WSN/1933(H1N1)); experiment: Binding affinity to Influenza A virus A/WSN/33 (H1N1) HA1 protein assessed as decrease in protein affinity to sialic acid receptor at 10 uM by surface plasmon resonance assay
[5] = system: Influenza A virus (A/WSN/1933(H1N1)); experiment: Binding affinity to Influenza A virus A/WSN/33 (H1N1) HA1 protein assessed as decrease in protein affinity to sialic acid receptor at 0.625 uM by surface plasmon resonance assay
[6] = system: Influenza A virus (A/WSN/1933(H1N1)); experiment: Binding affinity to Influenza A virus A/WSN/33 (H1N1) HA1 protein assessed as decrease in protein affinity to sialic acid receptor at 5 uM by surface plasmon resonance assay
[7] = system: Influenza A virus (A/WSN/1933(H1N1)); experiment: Binding affinity to Influenza A virus A/WSN/33 (H1N1) HA1 protein by surface plasmon resonance assay
[8] = system: Influenza A virus (A/WSN/1933(H1N1)); experiment: Binding affinity to Influenza A virus A/WSN/33 (H1N1) HA1 protein assessed as decrease in protein affinity to sialic acid receptor at 2.5 uM by surface plasmon resonance assay
[9] = Binding affinity to Influenza A virus A/WSN/33 (H1N1) HA1 protein assessed as decrease in protein affinity to sialic acid receptor by measuring dissociation constant by surface plasmon resonance assay (reference value: 0.001473/Ms); design: species or system Influenza A virus (A/WSN/1933(H1N1))
[10] = Inhibition of Influenza A virus A/WSN/33 (H1N1) HA1 protein by surface plasmon resonance assay; design: species or system Influenza A virus (A/WSN/1933(H1N1))
[11] = Binding affinity to Influenza A virus A/WSN/33 (H1N1) HA1 protein assessed as decrease in protein affinity to sialic acid receptor by surface plasmon resonance assay (reference value: 70 nM); design: species or system Influenza A virus (A/WSN/1933(H1N1))
[12] = system: Influenza A virus (A/WSN/1933(H1N1)); experiment: Binding affinity to Influenza A virus A/WSN/33 (H1N1) HA1 protein assessed as decrease in protein affinity to sialic acid receptor by measuring association constant by surface plasmon resonance assay (reference value: 20810/s)
Influenza B virus = experiment: Antiviral activity against influenza B virus B/SZ/155 infected in dog MDCK cells assessed as inhibition of virus induced cytopathic effect after 40 hrs by Cell-Titer-Glo assay; type: functional, organism-based; settings: B/SZ/155, MDCK
[13] = system: Influenza A virus (A/WSN/1933(H1N1)); experiment: Binding affinity to Influenza A virus A/WSN/33 (H1N1) HA1 protein assessed as decrease in protein affinity to sialic acid receptor at 20 uM by surface plasmon resonance assay relative to control

| SMILES | IC50 (Influenza A virus) | CC50 at 40 h [1] | Activity [2] | Activity [3] | Activity [4] | Activity [5] | Activity [6] | Ka [7] | Activity [8] | Kd [9] | IC50 [10] | Kd [11] | Ka [12] | EC50 (Influenza B virus) | fold change (FC) [13] |
| --- | --- | --- | --- | --- | --- | --- | --- | --- | --- | --- | --- | --- | --- | --- | --- |
| CCCc1c(Cl)c(OC)cc(OC)c1Oc1c(Cl)c(O)c(Cl)c2c1C(=O)O[C@@H]2CC | 16.2 µM | > 50 µM |  |  |  |  |  |  |  |  |  |  |  |  |  |
| CCCc1cc(O)cc(OC)c1Oc1c(Cl)c(O)c(Cl)c2c1C(=O)O[C@@H]2CC | 74.9 µM | > 100 µM | 114 RU | 7 RU | 55.1 RU | 3.4 RU | 27.1 RU | 0.46 ×10⁴ /Ms | 13 RU | 0.0007964 M⁻¹ s⁻¹ | 74.9 µM | 0.224 µM | 3560 s⁻¹ |  |  |
| CCOC(=O)C1=C[C@@H](OC(CC)CC)[C@H](NC(C)=O)[C@@H](N)C1 [OSELTAMIVIR] | 10 µM | > 100 µM |  |  |  |  |  |  |  |  |  |  |  | > 83.2 µM |  |
| CCCc1c(Cl)c(OC)c(Cl)c(O)c1Oc1c(Cl)c(O)c(Cl)c2c1C(=O)O[C@@H]2CC | > 50 µM | > 50 µM |  |  |  |  |  |  |  |  |  |  |  |  |  |
| CCCc1c(Cl)c(OC)c(Cl)c(OC)c1Oc1c(Cl)c(O)c(Cl)c2c1C(=O)O[C@@H]2CC | > 50 µM | > 50 µM |  |  |  |  |  |  |  |  |  |  |  |  |  |
| NC12CC3CC(CC(C3)C1)C2 [AMANTADINE] | 13 µM | > 100 µM |  |  |  |  |  |  |  |  |  |  |  | 144 µM |  |
| CCCc1cc(O)c(Cl)c(O)c1Oc1c(Cl)c(O)c(Cl)c2c1C(=O)O[C@@H]2CC | 30.7 µM | > 100 µM |  |  |  |  |  | 0.67 ×10⁴ /Ms |  |  | 30.7 µM |  |  |  |  |
| COc1cc(/C=C/C(=O)CC(=O)/C=C/c2ccc(O)c(OC)c2)ccc1O [CURCUMIN] |  |  | 78.8 RU | 2.7 RU | 36.4 RU | 0.8 RU | 16.1 RU |  | 6.8 RU | 0.001351 M⁻¹ s⁻¹ |  | 0.507 µM | 2660 s⁻¹ |  | 8 |
| CCOC(=O)c1c(CSc2ccccc2)n(C)c2cc(Br)c(O)c(CN(C)C)c12 [UMIFENOVIR] |  |  | 102 RU | 1.2 RU | 48.7 RU | -1.8 RU | 20.7 RU |  | 7.5 RU | 0.0009582 M⁻¹ s⁻¹ |  | 0.081 µM | 11800 s⁻¹ |  |  |
